US4927826A, “Cycloproylpropenamides useful as platelet activing factor (PAF) antagonists” (Hoffman-La Roche Inc., priority 1988, dated 1990)

Experiments:
dog platelets = assay: Binding assay: inhibition of 3H-PAF binding to dog platelets; conditions: 10 minutes at room temperature
Description: The binding assay was done in 400 μl polyethylene microcentrifuge tubes (Beckman) containing 50 μl of an oil mixture of 2 parts Siliconol AR200 (Serva): 1 part Silicone Fluid (Arthur H. Thomas). Buffer, standards, or analogs (150 μl total volume) were added to the tubes. Radiolabelled ^3 H-PAF (50 μl) was then added to the tubes. The reaction was started by the addition of 50 μl of dog platelets (2×10^7 platelets). The tubes were capped, inverted several times to mix, and incubated for 10 minutes at room temperature. The platelets were separated from the incubation mixture by centrifuging 1 minute in a Beckman Microfuge B centrifuge. The tip of the microfuge tube was cut off, and the platelets were washed out of the tip with 200 μl of 50% methanol (Burdick and Jackson). Aquasol (NEN, 10 ml) was added and the radioactivity in the samples was determined using an LS 8100 Beckman liquid scintillation counter linked to a Techtran tape recorder. Data was processed through an in-house computer system. Alternatively, radioactivity was determined using a Searle Mark III liquid scintillation counter linked to a Iso-Data microprocessor.
(b) Preparation of Platelets
Blood was collected from anesthesized or unanesthesized dogs into 50 ml plastic centrifuge tubes containing 3.8% sodium citrate as the anticoagulant (1 volume of citrate/9 volumes of blood). The red cells were removed by centrifugation for 15 minutes at 600 rpm (100-125 g) at room temperature. An aliquot of the supernatant platelet rich plasma (PRP) was saved for cell counting and the remainder was acidified by pH 6.5 with 0.15M citric acid. The platelet pellet was obtained after a 10 minute centrifugation at 2000 rpm (1000 g) at room temperature. Washed platelets were prepared by resuspending the platelet pellet once with PBS containing 1 mM EDTA, centrifuging as noted, and then resuspending the platelets in 0.1% BSA-PBS. An aliquot of the washed platelets was counted. Platelets used for binding assays were diluted to 2×10^7 platelets/assay tube (4×10^8 platelets/ml). Platelet counting was done using a Royco Cell-Crit 921.

[1] = tested on: PAF-induced Bronchoconstriction; assay: PAF Induced Bronchoconstriction Assay; format: in vivo; conditions: guinea pig, ± standard error of the mean; for Percent Inhib. of PAF-induced Bronchoconstriction, 1 mg/Kg i.v.: 1 minute pretreatment, PAF 1.0 μg/kg i.v.; for Percent Inhib. of PAF-induced Bronchoconstriction, 50 mg/Kg p.o.: 2-hour pretreatment, PAF i.v.
Description: PAF Induced Bronchoconstriction Assay
Male animals (Hartlet Strain, 400-500 g) were anesthetized with urethane (2 g/kg, i.p.). Each animals' trachea was cannulated and the guinea pigs were respirated using a Harvard small animal rodent respirator (3.0 cc stroke volume, 40 breaths per min.). Tracheal pressure was recorded from a cannula inserted in the trachea and connected to a Statham Pressure Transducer.
The jugular vein was cannulated for administering compounds. Spontaneous breathing was arrested with succinylcholine (1.2 mg/kg, i.v.) administered 2 minutes prior to intravenous injection of platelet activating factor (PAF).
For, the intravenous testing, the guinea pig is given a 5-minute pretreatment with propranolol at a dose of 0.1 mg/kg intravenously. The test compound is administered with a 1 minute pretreatment prior to intravenous challenge with PAF. The animal is then challenged with a 1.0 μg/kg intravenous dose of PAF and the change is tracheal pressure is measured.
For the oral testing, the procedure includes a 2-hour pretreatment period with the test compound administered through an oral gavage tube. Propranolol or succinylcholine and PAF are administered intravenously, and the change in tracheal pressure measured.
The change is tracheal pressure is determined by subtracting the steady state baseline achieved after administration of succinylcholine from the peak bronchoconstriction seen after challenge with PAF. The mean is calculated for each test compound and compared to the mean of the control animals to give the percent inhibition of bronchoconstriction. The standard error is calculated as the standard error of the mean.

| IC50 (dog platelets) | SMILES | Percent Inhib. of PAF-induced Bronchoconstriction, 1 mg/Kg i.v. [1] | Percent Inhib. of PAF-induced Bronchoconstriction, 50 mg/Kg p.o. [1] |
| --- | --- | --- | --- |
| 300 nM | O=C(CCC1CC1(c1ccccc1)c1ccccc1)NCCCCc1cccnc1 (racemic) [(R,S)-2,2-Diphenyl-N-[4-(3-pyridinyl)butyl]cyclopropanepropanamide] | – | – |
| 55 nM | S=C(/C=C/C1CC1(c1ccccc1)c1ccccc1)NCCCCc1cccnc1 (racemic) [(R,S)-(E)-3-(Diphenylcyclopropyl)-N-[4-(3-pyridinyl)butyl]-2-propenethioamide] | – | – |
| 150 nM | O=C(/C=C/C1CC1(c1ccccc1)c1ccccc1)NCCCCc1cccnc1 (racemic) [[R,S-(E)]-3-(2,2-Diphenylcyclopropyl)-N-[4-(3-pyridinyl)butyl]-2-propenamide] | 48 ± 16% | – |
| 70 nM | COc1cccc(C2(c3cccc(OC)c3)CC2/C=C/C(=O)NCCCCc2cccnc2)c1 (racemic) [[R,S-(E)]-3-[2,2-bis(3-Methoxyphenyl)cyclopropyl]-N-[4-(3-pyridinyl)butyl]-2-propenamide] | – | 14 ± 1% |
| 300 nM | CC1(/C=C/C(=O)NCCCCc2cccnc2)CC1(c1ccc(F)cc1)c1ccc(F)cc1 (racemic) [[R,S-(E)]-3-[2,2-bis(4-Fluorophenyl)-1-methylcyclopropyl]-N-[4-(3-pyridinyl)butyl]-2-propenamide] | – | – |
| 100 nM | O=C(/C=C/C1CC1(c1ccc(F)cc1)c1ccc(F)cc1)NCCCCc1cccnc1 (racemic) [[R,S-(E)]-3-[2,2-bis(4-Fluorophenyl)cyclopropyl]-N-[4-(3-pyridinyl)butyl]-2-propenamide] | 20 ± 8% | 82 ± 5% |
| 350 nM | O=C(/C=C/C1CC1(c1cccc(C(F)(F)F)c1)c1cccc(C(F)(F)F)c1)NCCCCc1cccnc1 (racemic) [[R,S-(E)]-3-[2,2-bis[3-(trifluoromethyl)phenyl]cyclopropyl]-N-[4-(3-pyridinyl)butyl]-2-propenamide] | – | – |
| 650 nM | O=C(/C=C\C1CC1(c1ccccc1)c1ccccc1)NCCCCc1cccnc1 (racemic) [[R,S-(Z)]-3-(2,2-Diphenylcyclopropyl)-N-[4-(3-pyridinyl)butyl]-2-propenamide] | – | – |
| 1000 nM | O=C(/C=C\C1CC1(c1ccc(F)cc1)c1ccc(F)cc1)NCCCCc1cccnc1 (racemic) [[R,S-(Z)]-3-[2,2-bis(4-Fluorophenyl)cyclopropyl]-N-[4-[3-pyridinyl)butyl]-2-propenamide] | – | 78 ± 11% |
| 8 nM | COc1cccc([C@]2(c3ccccc3)C[C@@H]2/C=C/C(=O)NCCCCc2cccnc2)c1 (relative stereo) [[1(R,S),2(R,S)-(E)]-3-[[2-(3-Methoxyphenyl)-2-phenyl]cyclopropyl]-N-[4-(3-pyridinyl)butyl]-2-propenamide] | – | – |
| 300 nM | COc1cccc([C@]2(c3ccccc3)C[C@@H]2/C=C\C(=O)NCCCCc2cccnc2)c1 (relative stereo) [[1(R,S),2(R,S)-(Z)]-3-[[2-(3-Methoxyphenyl)-2-phenyl]cyclopropyl]-N-[4-(3-pyridinyl)butyl]-2-propenamide] | – | 9 ± 14% |
| 35 nM | COc1cccc([C@@]2(c3ccccc3)C[C@@H]2/C=C/C(=O)NCCCCc2cccnc2)c1 (relative stereo) [[1(R,S),2(S,R)-(E)]-3-[[2-(3-Methoxyphenyl)-2-phenyl]cyclopropyl]-N-[4-(3-pyridinyl)butyl]-2-propenamide] | – | – |
| 250 nM | COc1cccc([C@@]2(c3ccccc3)C[C@@H]2/C=C\C(=O)NCCCCc2cccnc2)c1 (relative stereo) [[1(R,S),2(S,R)-(Z)]-3-[[2-(3-Methoxyphenyl)-2-phenyl]cyclopropyl]-N-[4-(3-pyridinyl)butyl]-2-propenamide] | – | 15 ± 12% |
| 130 nM | C[C@H](CCCc1cccnc1)NC(=O)/C=C/[C@@H]1CC1(c1cccc(F)c1)c1cccc(F)c1 (relative stereo) [[S,R*-(E)]-3-[2,2-bis(3-Fluorophenyl)cyclopropyl]-N-[1-methyl-4-(3-pyridinyl)butyl]-2-propenamide] | – | – |
| 450 nM | C[C@H](CCCc1cccnc1)NC(=O)/C=C/[C@@H]1CC1(c1ccc(F)cc1)c1ccc(F)cc1 (relative stereo) [[S,R*-(E)]-3-[2,2-bis(4-Fluorophenyl)cyclopropyl]-N-[1-methyl-4-(3-pyridinyl)butyl]-2-propenamide] | – | – |
| 450 nM | COc1cccc(C2(c3cccc(OC)c3)CC2/C=C/C(=O)NC(C)CCCc2cccnc2)c1 (stereo in doubt) [(S,R*)-(E)-3-[2,2-bis(3-Methoxyphenyl)cyclopropyl]-N-[1-methyl-4-(3-pyridinyl)butyl]-2-propenamide] | – | – |
| 600 nM | O=C(CC[C@@H]1CC1(c1ccccc1)c1ccccc1)NCCCCc1cccnc1 [(R)-2,2-Diphenyl-N-[4-(3-pyridinyl)butyl]cyclopropanepropanamide] | – | – |
| 200 nM | O=C(CC[C@H]1CC1(c1ccccc1)c1ccccc1)NCCCCc1cccnc1 [(S)-2,2-Diphenyl-N-[4-(3-pyridinyl)butyl]cyclopropanepropanamide] | – | – |
| 250 nM | O=C(/C=C/[C@H]1CC1(c1ccccc1)c1ccccc1)NCCCCc1cccnc1 [[R-(E)]-3-(2,2-Diphenylcyclopropyl)-N-[4-(3-pyridinyl)butyl]-2-propenamide] | 71 ± 12% | 57 ± 19% |
| 200 nM | O=C(/C=C/[C@H]1CC1(c1cccc(F)c1)c1cccc(F)c1)NCCCCc1cccnc1 [[R-(E)]-3-[2,2-bis(3-Fluorophenyl)cyclopropyl]-N-[4-(3-pyridinyl)butyl]-2-propenamide] | 29 ± 3% | 10 ± 13% |
| 300 nM | COc1cccc(C2(c3cccc(OC)c3)C[C@@H]2/C=C/C(=O)NCCCCc2cccnc2)c1 [[R-(E)]-3-[2,2-bis(3-Methoxyphenyl)cyclopropyl]-N-[4-(3-pyridinyl)butyl]-2-propenamide] | 8 ± 5% | 8 ± 2% |
| 200 nM | O=C(/C=C/[C@H]1CC1(c1ccc(F)cc1)c1ccc(F)cc1)NCCCCc1cccnc1 [[R-(E)]-3-[2,2-bis(4-Fluorophenyl)cyclopropyl]-N-[4-(3-pyridinyl)butyl]-2-propenamide] | 13 ± 11% | 83 ± 31% |
| 500 nM | C[C@]1(/C=C/C(=O)NCCCCc2cccnc2)CC1(c1ccc(F)cc1)c1ccc(F)cc1 [[R-(E)]-3-[2,2-bis(4-fluorophenyl)-1-methylcyclopropyl]-N-[4-(3-pyridinyl)butyl]-2-propenamide] | – | – |
| 100 nM | O=C(/C=C\[C@H]1CC1(c1ccccc1)c1ccccc1)NCCCCc1cccnc1 [[R-(Z)]-3-(2,2-Diphenylcyclopropyl)-N-[4-(3-pyridinyl)butyl]-2-propenamide] | – | – |
| 36 nM | COc1cccc(C2(c3cccc(OC)c3)C[C@H]2/C=C/C(=O)NCCCCc2cccnc2)c1 [[S-(E)]-3-[2,2-bis(3-Methoxyphenyl)cyclopropyl]-N-[4-(3-pyridinyl)butyl]-2-propenamide] | 25 ± 8% | – |
| 200 nM | C[C@@]1(/C=C/C(=O)NCCCCc2cccnc2)CC1(c1ccc(F)cc1)c1ccc(F)cc1 [[S-(E)]-3-[2,2-bis(4-Fluorophenyl)-1-methylcyclopropyl]-N-[4-(3-pyridinyl)butyl]-2-propenamide] | – | – |
| 1000 nM | O=C(/C=C\[C@@H]1CC1(c1ccccc1)c1ccccc1)NCCCCc1cccnc1 [[S-(Z)]-3-(2,2-Diphenylcyclopropyl)-N-[4-(3-pyridinyl)butyl]-2-propenamide] | – | – |
